Experimental data as given in article PMC3352823, “In Vitro and In Vivo Activity of a Palladacycle Complex on Leishmania (Leishmania) amazonensis” (PLoS Neglected Tropical Diseases, 2012).

System: T1, L. (L.) amazonensis cathepsin B
T1 construct: gene CPC; native enzyme in amastigote lysate (hamster lesion amastigotes), not purified; activity defined by cathepsin B substrate and CA074
Format: biochemical, Leishmania amazonensis
Details: substrate Abz-Gly-Ile-Val-Arg-Ala-Lys(Dnp)-OH 10 µM; pH 5.0, 37 °C, 2 mM DTT

- IC50: 700 ± 80 nM
SMILES: CCCNC(=O)[C@H]1O[C@@H]1C(=O)N[C@H](C(=O)N1CCC[C@H]1C(=O)O)[C@@H](C)CC [CA074]
